Experiment [1] concerns the target T1, Tyrosine-protein phosphatase non-receptor type 1 (Homo sapiens, UniProt P18031).
T1 sequence (P18031 whole entry): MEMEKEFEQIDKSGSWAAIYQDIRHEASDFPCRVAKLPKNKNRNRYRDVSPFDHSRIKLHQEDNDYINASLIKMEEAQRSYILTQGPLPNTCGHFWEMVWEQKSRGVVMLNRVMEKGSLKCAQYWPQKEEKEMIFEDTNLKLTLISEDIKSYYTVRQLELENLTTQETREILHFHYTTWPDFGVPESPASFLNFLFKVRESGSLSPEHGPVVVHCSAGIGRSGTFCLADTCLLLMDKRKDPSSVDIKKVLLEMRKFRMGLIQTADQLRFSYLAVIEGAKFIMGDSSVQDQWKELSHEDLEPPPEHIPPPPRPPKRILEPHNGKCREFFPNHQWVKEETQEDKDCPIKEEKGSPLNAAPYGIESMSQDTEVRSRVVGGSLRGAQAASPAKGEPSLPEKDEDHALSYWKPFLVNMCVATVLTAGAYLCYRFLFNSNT
Nature of the experiment: Competitive inhibition of recombinant human PTP1B expressed in Escherichia coli using varying levels of […] as substrate by Lineweaver-burk plot analysis.

Experiment [2] addresses T1, Tyrosine-protein phosphatase non-receptor type 1. Briefly: Inhibition of recombinant human PTP1B expressed in Escherichia coli using […] as substrate preincubated with substrate for 5 mins followed by enzyme addition.
Experiment [3] concerns the target T2, Tyrosine-protein phosphatase non-receptor type 9 (Homo sapiens, UniProt P43378).
T2 sequence (P43378 whole entry): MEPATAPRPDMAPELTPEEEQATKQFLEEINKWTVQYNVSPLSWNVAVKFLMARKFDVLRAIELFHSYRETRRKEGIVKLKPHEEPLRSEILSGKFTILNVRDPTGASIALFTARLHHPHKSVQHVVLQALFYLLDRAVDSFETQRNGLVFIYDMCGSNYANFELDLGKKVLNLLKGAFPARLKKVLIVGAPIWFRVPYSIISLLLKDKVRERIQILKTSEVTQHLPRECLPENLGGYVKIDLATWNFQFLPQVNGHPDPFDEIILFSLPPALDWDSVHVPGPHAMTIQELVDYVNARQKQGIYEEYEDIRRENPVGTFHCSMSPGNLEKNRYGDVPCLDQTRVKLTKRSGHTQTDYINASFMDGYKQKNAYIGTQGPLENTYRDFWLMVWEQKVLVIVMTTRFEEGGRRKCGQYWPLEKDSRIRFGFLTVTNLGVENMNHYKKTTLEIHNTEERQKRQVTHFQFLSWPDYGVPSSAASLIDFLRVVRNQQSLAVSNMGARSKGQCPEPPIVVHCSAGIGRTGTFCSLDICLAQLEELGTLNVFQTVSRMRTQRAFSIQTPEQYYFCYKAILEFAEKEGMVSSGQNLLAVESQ
Briefly: Inhibition of recombinant human N-terminal GST-tagged MEG2 catalytic domain (285 to 593 residues) expressed in Escherichia coli using […] as substrate preincubated with substrate for 5 mins followed by enzyme addition.

Experiment [4] has as its target T3, Tyrosine-protein phosphatase non-receptor type 2 (Homo sapiens, UniProt P17706).
T3 sequence (P17706 whole entry): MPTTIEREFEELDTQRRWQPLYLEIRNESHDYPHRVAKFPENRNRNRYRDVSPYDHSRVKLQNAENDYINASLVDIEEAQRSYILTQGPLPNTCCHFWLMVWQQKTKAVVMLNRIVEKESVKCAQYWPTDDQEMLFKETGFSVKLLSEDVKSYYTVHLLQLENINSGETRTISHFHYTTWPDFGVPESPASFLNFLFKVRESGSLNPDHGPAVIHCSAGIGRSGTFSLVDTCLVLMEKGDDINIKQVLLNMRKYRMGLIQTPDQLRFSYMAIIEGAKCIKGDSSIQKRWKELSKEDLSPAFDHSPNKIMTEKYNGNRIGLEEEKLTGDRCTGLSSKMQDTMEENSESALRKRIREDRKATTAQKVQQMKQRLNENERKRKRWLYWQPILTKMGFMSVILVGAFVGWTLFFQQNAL
Briefly: Inhibition of recombinant human N-terminal GST-tagged TCPTP catalytic domain (2 to 315 residues) expressed in Escherichia coli using […] as substrate preincubated with substrate for 5 mins followed by enzyme addition.

Experiment [5] concerns the target T4, Tyrosine-protein phosphatase non-receptor type 11 (Homo sapiens, UniProt Q06124).
T4 sequence (Q06124 whole entry): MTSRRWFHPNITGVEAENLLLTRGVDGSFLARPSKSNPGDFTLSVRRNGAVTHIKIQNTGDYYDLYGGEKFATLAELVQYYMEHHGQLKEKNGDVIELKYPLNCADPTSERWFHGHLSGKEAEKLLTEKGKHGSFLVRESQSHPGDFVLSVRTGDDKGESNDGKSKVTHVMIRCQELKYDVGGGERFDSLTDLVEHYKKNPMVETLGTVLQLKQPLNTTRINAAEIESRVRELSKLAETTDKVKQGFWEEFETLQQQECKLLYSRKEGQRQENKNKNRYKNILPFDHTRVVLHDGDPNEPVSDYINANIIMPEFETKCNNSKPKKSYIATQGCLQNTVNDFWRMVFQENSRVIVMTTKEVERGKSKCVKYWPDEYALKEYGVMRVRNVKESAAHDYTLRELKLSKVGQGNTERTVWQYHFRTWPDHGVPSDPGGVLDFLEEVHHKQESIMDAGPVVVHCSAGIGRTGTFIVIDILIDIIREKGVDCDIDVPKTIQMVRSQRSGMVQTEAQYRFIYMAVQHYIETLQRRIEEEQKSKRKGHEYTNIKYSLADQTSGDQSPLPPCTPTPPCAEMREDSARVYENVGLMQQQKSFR
Briefly: Inhibition of recombinant human SHP2 expressed in Escherichia coli using […] as substrate preincubated with substrate for 5 mins followed by enzyme addition.

For experiment [6], the target named is T5, Tyrosine-protein phosphatase non-receptor type 4 (Homo sapiens, UniProt P29074).
T5 sequence (P29074 whole entry): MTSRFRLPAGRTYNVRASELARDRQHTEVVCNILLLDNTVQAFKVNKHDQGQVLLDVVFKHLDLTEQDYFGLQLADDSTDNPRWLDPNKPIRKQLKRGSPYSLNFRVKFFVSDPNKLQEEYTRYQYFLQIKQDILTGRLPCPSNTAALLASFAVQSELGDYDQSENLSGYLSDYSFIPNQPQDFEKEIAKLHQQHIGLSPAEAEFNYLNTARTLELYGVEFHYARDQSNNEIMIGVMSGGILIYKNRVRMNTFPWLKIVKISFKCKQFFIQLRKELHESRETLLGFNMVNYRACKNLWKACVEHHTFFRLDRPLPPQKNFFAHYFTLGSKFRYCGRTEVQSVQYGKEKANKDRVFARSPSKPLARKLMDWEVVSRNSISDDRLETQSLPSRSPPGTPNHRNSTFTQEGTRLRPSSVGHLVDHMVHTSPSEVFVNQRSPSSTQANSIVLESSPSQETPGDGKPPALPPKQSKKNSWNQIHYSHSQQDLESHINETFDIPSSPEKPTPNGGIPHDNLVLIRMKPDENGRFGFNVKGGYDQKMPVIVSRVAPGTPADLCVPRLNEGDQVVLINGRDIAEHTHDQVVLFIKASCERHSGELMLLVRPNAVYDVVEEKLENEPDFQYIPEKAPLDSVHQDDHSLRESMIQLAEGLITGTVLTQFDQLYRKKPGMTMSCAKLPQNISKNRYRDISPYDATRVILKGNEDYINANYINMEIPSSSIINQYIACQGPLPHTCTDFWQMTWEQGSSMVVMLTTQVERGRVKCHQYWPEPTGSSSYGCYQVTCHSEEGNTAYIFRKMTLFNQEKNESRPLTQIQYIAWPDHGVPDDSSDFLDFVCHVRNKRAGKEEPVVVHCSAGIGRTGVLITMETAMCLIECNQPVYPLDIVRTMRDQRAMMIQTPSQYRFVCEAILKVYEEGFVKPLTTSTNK
Nature of the experiment: Inhibition of recombinant human N-terminal GST-tagged MEG1 catalytic domain (637 to 926 residues) expressed in Escherichia coli using […] as substrate preincubated with substrate for 5 mins followed by enzyme addition.

Experiment [7] is filed under the species Homo sapiens. Nature of the experiment: Selectivity ratio of IC50 for recombinant human SHP2 expressed in Escherichia coli to IC50 for recombinant human PTP1B expressed in Escherichia coli.
Experiment [8] is filed under the species Homo sapiens. Nature of the experiment: Selectivity ratio of IC50 for recombinant human N-terminal GST-tagged MEG2 catalytic domain (285 to 593 residues) expressed in Escherichia coli to IC50 for recombinant human PTP1B expressed in Escherichia coli.
The species named for experiment [9] is Homo sapiens. Nature of the experiment: Selectivity ratio of IC50 for recombinant human N-terminal GST-tagged MEG1 catalytic domain (637 to 926 residues) expressed in Escherichia coli to IC50 for recombinant human PTP1B expressed in Escherichia coli.
For experiment [10], the species on record is Homo sapiens. Briefly: Selectivity ratio of IC50 for recombinant human N-terminal GST-tagged TCPTP catalytic domain (2 to 315 residues) expressed in Escherichia coli to IC50 for recombinant human PTP1B expressed in Escherichia coli.

A word on the Ki: it is a dissociation constant, usually derived from enzyme kinetics or from competition with a known ligand. For orientation: IC50 means the concentration that inhibits the measured activity by half.

SMILES strings stand for the structures.

Regarding `O=P(O)(Cc1cc2c(O)c(c1)S(=O)(=O)c1cc(CP(=O)(O)c3ccccc3)cc(c1O)S(=O)(=O)c1cc(CP(=O)(O)c3ccccc3)cc(c1O)S(=O)(=O)c1cc(CP(=O)(O)c3ccccc3)cc(c1O)S2(=O)=O)c1ccccc1`, in [1], the Ki is 32 nM. Moreover, the half-maximal inhibitory concentration (IC50) in experiment [2] stood at 79 nM; in [3], 410 nM; in [4], 280 nM; in experiment [5], 500 nM; in experiment [6], 180 nM.

As for `O=P(O)(Cc1cc2c(O)c(c1)Sc1cc(CP(=O)(O)c3ccccc3)cc(c1O)Sc1cc(CP(=O)(O)c3ccccc3)cc(c1O)Sc1cc(CP(=O)(O)c3ccccc3)cc(c1O)S2)c1ccccc1`, the Ratio IC50 in the experiment listed under Homo sapiens [7] was 10 to 18; in the experiment listed under Homo sapiens [8], 10 to 18; in the experiment listed under Homo sapiens [9], 10 to 18; in the experiment listed under Homo sapiens [10] it was 15. Also, the Ki in experiment [1] was 140 nM. The IC50 in experiment [2] turned out to be 380 nM; in experiment [3], 5900 nM; in experiment [4], 6800 nM; in experiment [5], 3700 nM; in experiment [6], 5400 nM.

Take `O=P(O)(Cc1cc2c(O)c(c1)Cc1cc(CP(=O)(O)c3ccccc3)cc(c1O)Cc1cc(CP(=O)(O)c3ccccc3)cc(c1O)Cc1cc(CP(=O)(O)c3ccccc3)cc(c1O)C2)c1ccccc1`: the IC50 amounted to 2800 nM in experiment [2]; 2400 nM in experiment [3]; 20000 nM in experiment [4]; 4600 nM in [5]; 30000 nM in experiment [6].

For `CCOP(=O)(O)Cc1cc2c(O)c(c1)Sc1cc(CP(=O)(O)OCC)cc(c1O)Sc1cc(CP(=O)(O)OCC)cc(c1O)Sc1cc(CP(=O)(O)OCC)cc(c1O)S2`, in the experiment filed under Homo sapiens [10], the Ratio IC50 worked out at 15.

The values above are taken from ChEMBL document CHEMBL4422658, “Calixarene-based phosphinic acids as inhibitors of protein tyrosine phosphatases” (Bioorg Med Chem Lett, 2019).
